According to patent publication US12090164B2, “Genotype-agnostic rescue of cystic fibrosis with small molecule bicarbonate channels” (The Board of Trustees of the University of Illinois, priority 2017, dated 2024):
Entries after “also recorded” stand apart in the source; their conditions may differ.

How the values were obtained:
[1] = aerosolized NaHCO3; cited from earlier work
CuFi-1 epithelia = assay: ASL height by confocal microscopy; format: cell-based, human
Description: (§1) ASL height was studied using an established fluorescent dye assay (60, 61). Small diameter NuLi and CuFi-1 cultured epithelia were used for this experiment (0.33 cm^2). 24 hours prior to the start of experiment, the apical side of all cultured epithelia was rinsed three times with warm PBS to remove excess mucus. NuLi epithelia were treated with perfluorocarbon (FC-72) vehicle or 500 µM basolateral bumetanide in DMSO vehicle applied to the media, and CuFi epithelia were treated with 20 μL vehicle, 0.005, 0.5, or 50 μM AmB, or 0.5 μM C35deOAmB suspended in perfluorocarbon (FC-72, Sigma), with or without 500 μM basolateral bumetanide in DMSO vehicle applied to the media and incubated for 24 hours at 37° C. After 24 hours, 2.5 μL of a 2 mg/mL 70 kDa Texas Red-dextran conjugate (Molecular Probes) solution in PBS was added to the apical side of the epithelia, followed by 100 μL of FC-770 to prevent evaporation. Then the culture support was placed on top of 100 μL of PBS on a 10 mm glass bottom Fluorodish for imaging (World Precision Instruments). Epithelia were imaged immediately after dye addition and again at 24 hours to examine dye absorption. Three Z-stack images per membrane were taken on an Zeiss LSM700 confocal microscope at 40× oil immersion. These images were analyzed using ImageJ (62) to determine the average ASL height in the center 1300 pixels of each image. Images were smoothed, converted to 8-bit, and thresholded to most accurately represent the red area. The parameters for Analyze Particles were particles from 1-Infinity μm^2 in size and from 0%-100% circularity. Height was determined by dividing the area output in pixels by the known 1300 pixel width and converted to microns using the known scaling factor of 0.49 µm/pixel.

NuLi epithelia = assay: ASL height by confocal microscopy; format: cell-based, human; conditions: bumetanide 500 μM
Description: as §1

[2] = system: CuFi-1 (ΔF508/ΔF508) epithelia; assay: ASL pH in cultured CF airway epithelia (SNARF-dextran); format: cell-based, human; conditions: for ASL pH, apical addition: AmB or C35deOAmB 2 μM, ivacaftor/forskolin 10 μM, 2 h, vs vehicle
Description: (§2) Small diameter NuLi, CuFi, and primary cultured epithelia were used for this experiment (0.33 cm^2). The ratiometric pH indicator SNARF-conjugated dextran (Molecular Probes) was used to measure ASL pH. SNARF powder was suspended via sonication in perfluorocarbon (FC-72, Sigma) and distributed onto the apical surface. ASL pH was measured 2 hr later (3, 4, 25). SNARF was excited at 488 nm and emission was recorded at 580 nm and 640 nm using a Zeiss LSM 800 microscope at 40× water immersion for cell line cultures and a Zeiss LSM 510 microscope for primary cultures. To generate a standard curve for pH determination, SNARF was dissolved in colorless pH standards and fluorescence ratios were converted to pH.
(§3) Agents tested in this assay were first lyophilized into powder and then suspended in the appropriate volume of perfluorocarbon (FC-72, Sigma) and sonicated for 1 minute to suspend. AmBisome should not be sonicated; instead, the fine powder was suspended by vortexing.
(§4) In all experiments, ASL pH of compound-treated epithelia was measured compared the results to vehicle-treated epithelia.
(§5) For apical AmB administration, cultured airway epithelia were incubated for 30 min-48 hrs at 37° C. before measurement of ASL pH. For AmB-cholesterol complex and C35deOAmB administration, cultured airway epithelia were incubated for 48 hrs at 37° C. before measurement of ASL pH. To test the effect of […] ATPase inhibition, AmB was administered 47 hours prior to 10 mM ouabain addition, and cultured airway epithelia were incubated for an additional 1 hr at 37° C. before measurement of ASL pH. For 10 μM ivacaftor/10 μM forskolin administration, cultured airway epithelia were incubated for 2 hrs at 37° C. before measurement of ASL pH (25). For basolateral AmB administration, a 2 mM stock of AmB in DMSO was diluted 1000-fold to a final concentration of 2 μM in USG media. The basolateral media of cultured airway epithelia was replaced with the AmB-containing USG media and incubated for 48 hrs at 37° C. before measurement of ASL pH.

[3] = system: CuFi-4 (G551D/ΔF508) epithelia; assay: as above; format: cell-based, human
Description: as §2, §3, §4, §5

[4] = system: CuFi-1 (ΔF508/ΔF508) epithelia; assay: Basolateral to apical H14CO3- transport; format: cell-based, human; conditions: for basolateral to apical H^14CO3^− transport, apical addition: over 10 minutes, AmB or C35deOAmB 2 μM, ivacaftor/forskolin 10 μM
Description: (§6) Small diameter NuLi and CuFi cultured epithelia were used for this experiment (0.33 cm^2). ^14C-labeled sodium HCO3^− was obtained as a sterile 35.7 mM aqueous solution pH 9.5 (MP Biomedicals 0117441H). All experiments were run less than 2 months post seeding. Fresh USG media was added to the basolateral side prior to experimentation. The apical membrane was treated with 20 μL of vehicle, AmB, or ivacaftor/forskolin as a suspension in perfluorocarbon-72 (Sigma Aldrich), and the cultured epithelia were incubated for 48 hours, 7 days, 14 days, or 28 days at 37° C. in a 5% C02 atmosphere. After the end of the treatment period, 5 μL of a 1.4 mM H^14CO3^− stock solution in USG media was added to the basolateral media. The cultured epithelia were then incubated at 37° C. for 10 minutes. After 10 minutes, the apical membrane of the cultured epithelia was immediately washed with 200 μL of PBS. The ASL wash and a 200 μL aliquot of the basolateral media were diluted in scintillation cocktail and analyzed via liquid scintillation counting (23).

[5] = system: CuFi-4 (G551D/ΔF508) epithelia; assay: Basolateral to apical H14CO3- transport; format: cell-based, human; conditions: AmB 2 μM, ivacaftor/forskolin 10 μM
Description: as §6

[6] = system: primary sinonasal epithelia from a patient with a G551D mutation; conditions: relative to untreated controls; cited from earlier work
[7] = system: CF patients having at least one G551D allele; conditions: clinical trials; cited from earlier work
V520F allele = V520F allele (Homo sapiens, UniProt P13569, V520F); conditions: V520F allele (D259G/V520F); cited from earlier work
Chain of V520F allele (P13569 whole entry V520F): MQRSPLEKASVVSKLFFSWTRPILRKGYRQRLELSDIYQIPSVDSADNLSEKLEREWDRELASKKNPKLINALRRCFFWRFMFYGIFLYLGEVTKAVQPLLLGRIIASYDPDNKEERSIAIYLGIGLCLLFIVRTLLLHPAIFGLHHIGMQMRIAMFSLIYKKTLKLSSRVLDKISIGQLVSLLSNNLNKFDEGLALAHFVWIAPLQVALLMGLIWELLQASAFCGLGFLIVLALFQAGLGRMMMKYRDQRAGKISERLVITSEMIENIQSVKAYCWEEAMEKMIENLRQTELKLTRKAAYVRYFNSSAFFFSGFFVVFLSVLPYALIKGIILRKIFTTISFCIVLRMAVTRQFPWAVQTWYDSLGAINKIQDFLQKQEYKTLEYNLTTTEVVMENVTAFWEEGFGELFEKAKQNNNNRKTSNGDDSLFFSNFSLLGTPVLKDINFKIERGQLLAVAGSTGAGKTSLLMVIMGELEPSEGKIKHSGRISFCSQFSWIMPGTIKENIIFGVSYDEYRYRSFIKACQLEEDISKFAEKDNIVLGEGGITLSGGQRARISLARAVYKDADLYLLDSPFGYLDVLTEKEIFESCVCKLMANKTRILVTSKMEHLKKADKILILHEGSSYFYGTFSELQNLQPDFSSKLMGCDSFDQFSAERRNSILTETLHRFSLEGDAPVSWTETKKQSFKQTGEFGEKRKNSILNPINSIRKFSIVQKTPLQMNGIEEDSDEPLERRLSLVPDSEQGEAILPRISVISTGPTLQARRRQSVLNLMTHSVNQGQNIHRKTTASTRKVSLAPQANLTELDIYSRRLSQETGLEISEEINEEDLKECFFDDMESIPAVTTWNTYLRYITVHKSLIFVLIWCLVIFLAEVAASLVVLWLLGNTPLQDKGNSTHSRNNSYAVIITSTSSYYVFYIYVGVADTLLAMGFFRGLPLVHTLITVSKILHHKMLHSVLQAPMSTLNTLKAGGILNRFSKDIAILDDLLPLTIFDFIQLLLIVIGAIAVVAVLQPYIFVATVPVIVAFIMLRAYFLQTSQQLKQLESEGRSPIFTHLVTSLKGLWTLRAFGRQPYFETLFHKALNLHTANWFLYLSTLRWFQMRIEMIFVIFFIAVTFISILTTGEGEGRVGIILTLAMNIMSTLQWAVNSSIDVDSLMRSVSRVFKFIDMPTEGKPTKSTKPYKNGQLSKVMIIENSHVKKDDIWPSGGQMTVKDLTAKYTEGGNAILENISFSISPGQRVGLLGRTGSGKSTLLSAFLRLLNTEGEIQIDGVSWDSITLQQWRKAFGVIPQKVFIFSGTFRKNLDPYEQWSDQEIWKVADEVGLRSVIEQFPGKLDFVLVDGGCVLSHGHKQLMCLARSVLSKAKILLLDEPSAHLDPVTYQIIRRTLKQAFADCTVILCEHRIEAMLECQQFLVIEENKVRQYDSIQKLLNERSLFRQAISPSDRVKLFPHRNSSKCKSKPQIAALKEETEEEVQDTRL

[8] = system: CF epithelia that lack a G551D or similar allele; conditions: cited from earlier work
[9] = system: CuFi-1 (ΔF508/ΔF508) airway epithelia; assay: Ussing chamber permeabilization of differentiated CF airway epithelia; format: cell-based, human; conditions: differentiated CuFi-1 epithelia
Description: A series of natural products and synthetic compounds reported previously to permeabilize liposomes, cells, and/or nasal epithelia of mice to anions (11-14) were tested using an Ussing chamber and differentiated cultures of airway epithelia derived from an immortalized airway epithelial cell line from a CF patient having the most common ΔF508/ΔF508 genotype (CuFi-1) (15). […] The capacity for AmB and C35deOAmB to transport bicarbonate across cholesterol-containing POPC liposomes was tested using an adapted ^13C NMR-based assay (18).

[10] = system: primary cultured airway epithelia derived from humans with CF; assay: ASL pH in primary cultured airway epithelia from CF donors; format: cell-based, human; conditions: 9 donors, 2 μM, 48 h
Description: Airway epithelial cells were obtained from human trachea and bronchi of CF and non-CF specimens obtained from the Iowa Donor Network, either as post-mortem specimens or from tissue deemed not fit for transplant. Studies were approved by the University of Iowa Institutional Review Board. After pronase enzymatic digestion, cells were seeded onto collagen-coated semi-permeable membranes (0.33-1.12 cm^2, Corning 3470 polyester, 3460 polyester, 3413 polycarbonate) and grown at an air-liquid interface (52). Airway epithelial cell cultures were analyzed after they had differentiated and at least 14 days post-seeding.
as §2, §3, §4, §5

[11] = system: ASL of primary CF epithelia; Staphylococcus aureus killed; assay: ASL antibacterial activity (S. aureus-coated gold grids); format: cell-based, human; conditions: 2 μM, 48 h
Description: Staphylococcus aureus-coated gold grids were used to measure antibacterial activity of airway epithelial cultures (3, 4). Small diameter primary cultured epithelia were used for this experiment (0.33 cm^2). Bacteria-coated gold TEM grids were placed onto the apical surface of airway epithelia for 1 min after 48 hours of perfluorocarbon (FC-72, Sigma), 2 μM AmB, or 2 μM C35deOAmB treatment. As controls, bacteria-coated grids were also placed in saline or AmB in FC-72 laid over saline to simulate the administration method for 1 minute. After removal, bacteria on the grids were assessed for viability using Live/Dead BacLight Bacterial Viability assay (Invitrogen). Viability was determined in 4-6 fields to determine the percentages of dead bacteria.

[12] = system: protein ion channel-deficient yeast; conditions: cited from earlier work
yeast = conditions: cited from earlier work

O=C([O-])O.[Na+] [NaHCO3]
duration of transient increase in pH [1]: ~15 minutes

CCCCNc1cc(C(=O)O)cc(S(N)(=O)=O)c1Oc1ccccc1 [bumetanide]
effect of basolateral bumetanide on AmB-mediated increase in ASL height (CuFi-1 epithelia; bumetanide 500 μM): abolished the AmB-mediated increase in ASL height | ASL height after basolateral bumetanide (NuLi epithelia): decreased ASL height in NuLi epithelia

CC(C)(C)c1cc(C(C)(C)C)c(NC(=O)c2c[nH]c3ccccc3c2=O)cc1O [ivacaftor]
ASL pH, apical addition [2]: showed no increase in ASL pH | ASL pH, apical addition ([2]; listed as Ivacaftor): failed to increase ASL pH or H^14CO3^− secretion | ASL pH, apical addition ([2]; listed as ivacaftor/forskolin): an increase in ASL pH was not observed | increase in ASL pH ([3]; AmB 2 μM, ivacaftor/forskolin 10 μM): 0.2 unit | ASL pH ([3]; apical AmB 2 μM 48 h, ivacaftor/forskolin 10 μM 2 h): increase ASL pH | basolateral to apical H^14CO3^− transport, apical addition ([4]; listed as Ivacaftor): failed to increase ASL pH or H^14CO3^− secretion | basolateral to apical H^14CO3^− transport, apical addition ([4]; listed as ivacaftor/forskolin): did not | H^14CO3^− transepithelial transport [5]: increased the rate of bicarbonate efflux | H^14CO3^− transepithelial transport ([5]; listed as ivacaftor/forskolin): increase H^14CO3-transepithelial transport | decrease in viscosity [6]: about 1.5 units | increase in ASL pH [6]: 0.20 units | increase in forced expiratory volume [7]: 10% | other clinical outcomes [7]: substantially improved body weight, quality of life, and incidence of pulmonary exacerbation; also recorded: improved FEV1 | response to ivacaftor (V520F allele): refractory to treatment with ivacaftor | benefit in CF epithelia without G551D [8]: does not show benefit in CF epithelia that lack a G551D or similar allele

C[C@@H]1O[C@@H](O[C@H]2C[C@@H](O)[C@]3(CO)[C@H]4[C@H](O)C[C@]5(C)[C@@H](C6=CC(=O)OC6)CC[C@]5(O)[C@@H]4CC[C@]3(O)C2)[C@H](O)[C@H](O)[C@H]1O [ouabain]
effect of basolateral ouabain on AmB-mediated increase in ASL pH ([2]; AmB 2 μM 48 h, ouabain 10 mM): abrogated; also recorded: abolished | effect of basolateral ouabain on AmB-mediated increase in H^14CO3^− transport ([4]; AmB 2 μM, ouabain 10 mM): abrogated; also recorded: abolished

C35-deoxyamphotericin B [C35deOAmB]
change in short circuit current / permeabilization of epithelia [9]: Little or no permeabilization | ASL pH, apical addition [2]: an increase in ASL pH was not observed; also recorded: No increase in pH was observed; also recorded: did not raise ASL pH or increase H^14CO3^− secretion | basolateral to apical H^14CO3^− transport, apical addition [4]: did not; also recorded: caused no increase ASL ^14C bicarbonate; also recorded: did not raise ASL pH or increase H^14CO3^− secretion | ASL pH, apical addition [10]: did not increase ASL pH | ASL antibacterial activity (% of S. aureus killed after exposure to ASL) [11]: had no effect | ASL height, apical addition (CuFi-1 epithelia; 0.5 μM): did not increase ASL height | yeast growth rescue [12]: failed to rescue yeast growth at any tested concentration; also recorded: did not | toxicity / fungicidal activity to yeast (yeast): still maintains potent fungicidal activity
